# US6545009B1, “Retinoid-related receptor function regulating agent” (Takeda Chemical Industries, Ltd., priority 1998, dated 2003)
# Tests used:
# [1] = biological target: T1, PPARγ-RXRα heterodimer (Homo sapiens, UniProt P19793+P37231); assay: PPARγ-RXRα heterodimer ligand activity (luciferase reporter in PPARγ:RXRα:4ERPP/CHO-K1 cells); assay type: cell-based; settings: for EC50: luciferase fold induction, 48 hours
# T1 construct: expressed in transfected cells; host or cells: CHO-K1
# T1 sequence (P37231 1-477 isoform P37231-2): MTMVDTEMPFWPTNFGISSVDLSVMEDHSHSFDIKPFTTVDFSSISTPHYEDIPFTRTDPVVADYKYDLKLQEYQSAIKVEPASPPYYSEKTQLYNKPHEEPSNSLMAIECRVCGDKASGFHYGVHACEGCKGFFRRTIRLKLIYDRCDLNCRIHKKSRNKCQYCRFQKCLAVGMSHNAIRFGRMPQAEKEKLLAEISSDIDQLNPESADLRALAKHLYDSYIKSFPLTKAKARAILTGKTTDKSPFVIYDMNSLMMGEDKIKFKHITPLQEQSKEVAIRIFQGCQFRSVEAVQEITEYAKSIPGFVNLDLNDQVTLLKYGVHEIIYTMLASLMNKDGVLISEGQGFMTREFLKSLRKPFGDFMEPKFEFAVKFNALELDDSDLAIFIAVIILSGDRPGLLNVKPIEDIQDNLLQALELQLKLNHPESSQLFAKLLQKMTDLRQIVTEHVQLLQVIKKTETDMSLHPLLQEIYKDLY
# T1 sequence (P19793 1-462): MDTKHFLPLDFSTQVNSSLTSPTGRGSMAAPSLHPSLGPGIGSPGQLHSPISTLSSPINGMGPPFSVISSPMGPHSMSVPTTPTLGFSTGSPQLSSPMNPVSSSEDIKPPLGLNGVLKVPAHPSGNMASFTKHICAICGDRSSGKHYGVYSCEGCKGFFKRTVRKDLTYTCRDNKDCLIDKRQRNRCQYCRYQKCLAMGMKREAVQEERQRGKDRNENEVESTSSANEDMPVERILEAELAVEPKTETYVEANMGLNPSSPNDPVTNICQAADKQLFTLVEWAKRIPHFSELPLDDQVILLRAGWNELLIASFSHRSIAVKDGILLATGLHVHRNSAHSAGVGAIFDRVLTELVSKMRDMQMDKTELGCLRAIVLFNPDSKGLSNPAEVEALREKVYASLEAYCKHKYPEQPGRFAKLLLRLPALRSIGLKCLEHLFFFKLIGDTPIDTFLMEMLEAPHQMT
# Description: (§1) PPAR γ:RXR α:4ERPP/CHO-K1 cells obtained in Reference Example 5 were cultured in HAM F12 medium (produced by NISSUI SEIYAKU) containing 10% Fetal bovine serum (produced by Life Technologies, Inc., USA) and then inoculated to a 96-well white plate (produced by Corning Costar Corporation, USA) at the density of 2×10^4 cells/well, and cultured in a CO2 gas incubator at 37° C. overnight.
# (§2) After washing the 96 well white plate with PBS (Phosphate-buffered saline), 90 μl of HAM F12 medium containing 0.1% fatty acid-free bovine serum albumin (BSA) and 10 μl of test compound were added to each well, and the plate was cultured in a CO2 gas incubator at 37° C. for 48 hours. After removing the medium, 40 μl of PIKKAGENE 7.5 (produced by Wako Pure Chemical Industries, Ltd.) was added to the well. After stirring, the luciferase activity was determined using Lumistar (produced by BMG Labtechnologies GmbH, Germany).
# (§3) A fold induction was calculated based on the luciferase activity of each test compound by estimating the luciferase activity in the non-treatment group as 1. The values of the test compound concentration and the fold induction were used to calculate the EC50 values, the effective concentration of a test compound for 50% of the maximum fold induction, by using PRISM 2.01 (produced by GraphPad Software Inc. USA).
# as §1, with “PPARγ:RXRα:4ERPP/CHO-K1” for “PPAR γ:RXR α:4ERPP/CHO-K1”, “Reference.” for “Reference”
# as §2, with “7.5 produced” for “7.5 (produced”, “Labtechnologies Gmbh,” for “Labtechnologies GmbH,”
# as §3, with “maximum” for “maximum fold”, “USA). The results are shown in [Table 1].” for “USA).”
# [2] = test system: KKA^y mice; assay: Hypoglycemic and hypolipidemic (hypotriglyceridemic) activities in mice; assay type: in vivo; settings: four days; for Hypoglycemic effect (%) / Hypolipidemic effect (%): 0.01% in powdered diet; for Hypoglycemic effect (%): reduction rate of plasma glucose compared with non-treatment group; for Hypolipidemic effect (%): reduction rate of plasma triglyceride compared with non-treatment group
# Description: Test compound was mixed in a powdered diet (CE-2, Japan Clea) at the concentration of 0.01%, and freely given to KKA^y mice (9 to 12 weeks old, 5 mice in a group) a model of obese and non-insulin-dependent diabetes mellitus (Type 2 diabetes mellitus), for four days. […] During the experimental period, water was given freely Blood was obtained from orbital venous plexus, and glucose and triglyceride levels in plasma were determined enzymatically using L type Wako Glu2 (Wako Pure Chemical Industries, Ltd.) and L type Wako TG·H (Wako Pure Chemical Industries, Ltd.), respectively.
# Test compound was mixed in a powdered diet (CE-2, Japan Clea) at the concentration of 0.01%, and freely given to KKA^y mice (9 to 12 weeks old, 5 mice in a group), a model of obese and.non-insulin-dependent diabetes mellitus (Type 2 diabtes mellitus), for four days. During this period, water was given freely. Blood was obtained from orbital venous plexus, and glucose and triglyceride levels in plasma were determined enzymatically using L type Wako Glu2 (Wako Pure Chemical Industries, Ltd.) and L type Wako TG·H (Wako Pure Chemical Industries, Ltd.), respectively.
# The value of each treatment group is represented as reduction rate (%) compared with the non-treatment group, which is shown in [Table 2].
Compound,EC50 [1],melting point,other results
"O=C(O)c1ccc(-c2nc(-c3ccc(Cl)cc3)cs2)cc1 [Example 52, 4-[4-(4-chlorophenyl)-2-thiazolyl]benzoic acid]",–,–,"hypoglycemic activity ([2]; 0.01% in diet, dose ranging from 0.1 to 50 mg/kg/day, plasma glucose): potent; hypolipidemic (hypotriglyceridemic) activity ([2]; 0.01% in diet, dose ranging from 0.1 to 50 mg/kg/day, plasma triglyceride): potent; PPARγ-RXRα heterodimer ligand activity ([1]; at a concentration ranging from 10^−5 M to 10^−9 M): potent"
"O=C(O)c1ccc(-c2nc(-c3ccc(C(F)(F)F)cc3)cs2)cc1 [Example 55, 4-[4-(4-trifluoromethylphenyl)-2-thiazolyl]benzoic acid]",68 nM,164 to 165 °C,Hypoglycemic effect (%) [2]: 70%; Hypolipidemic effect (%) [2]: 86%
"O=C(O)c1ccc(-c2nc(-c3ccc(OC(F)(F)F)cc3)cs2)cc1 [Example 64, 4-[4-(4-trifluoromethoxylphenyl)-2-thiazolyl]benzoic acid]",310 nM,245 to 246 °C,Hypoglycemic effect (%) [2]: 68%; Hypolipidemic effect (%) [2]: 88%
"Cc1cc(-c2csc(-c3cccc(C(=O)O)c3)n2)c(C)o1 [Example 72, 3-[4-(2,5-dimethyl-3-furyl)-2-thiazolyl]benzoic acid]",0.6 nM,174 to 175 °C,–
"CC(C)c1ccc(-c2csc(-c3cccc(C(=O)O)c3)n2)cc1 [Example 100, 3-[4-(4-isopropylphenyl)-2-thiazolyl]benzoic acid]",5.1 nM,214 to 215 °C,–
"Br.CCOC(=O)c1ccc(-c2csc(-c3ccncc3)n2)cc1 [Example 105, ethyl 4-[2-(4-pyridyl)-4-thiazolyl)benzoate hydrobromide]",–,247 to 248 °C,–
"CCOC(=O)c1ccc(-c2ncc(-c3ccc(Cl)cc3)o2)cc1 [Example 108, ethyl 4-[5-(4-chlorophenyl)-2-oxazolyl]benzoate]",–,195 to 197 °C,–
"CCOC(=O)c1ccc(-c2ncc(-c3ccc(Cl)cc3)s2)cc1 [Example 112, ethyl 4-[5-(4-chlorophenyl)-2-thiazolyl]benzoate]",–,167 to 168 °C,–
"O=C(O)c1cccc(-c2nc(-c3ccc(Cl)cc3)cs2)c1 [compound 12, 3-[4-(4-chlorophenyl)-2-thiazolyl]benzoic acid]",–,265 to 266 °C,–

# More lines, main results first:
EC50 [1],melting point,Compound,other results
92 nM,–,"O=C(O)c1ccc(-c2nc(-c3ccc(Cl)cc3)co2)cc1 [Example 8, 4-[4-(4-chlorophenyl)-2-oxazolyl]benzoic acid]",–
23 nM,258 to 259 °C,"O=C(O)c1ccc(-c2nc(-c3ccc(C(F)(F)F)cc3)co2)cc1 [Example 9, 4-[4-(4-trifluoromethylphenyl)-2-oxazolyl]benzoic acid]",Hypoglycemic effect (%) [2]: 51%; Hypolipidemic effect (%) [2]: 67%
100 nM,241 to 242 °C,"O=C(O)c1cccc(-c2nc(-c3cc(Cl)sc3Cl)cs2)c1 [Example 95, 3-[4-(2,5-dichloro-3-thienyl)-2-thiazolyl]benzoic acid]",–
1.9 nM,–,"CCOc1ccc(-c2csc(-c3cccc(C(=O)O)c3)n2)cc1 [Example 96, 3-[4-(4-ethoxyphenyl)-2-thiazolyl]benzoic acid]",–
–,142 to 143 °C,"CCOC(=O)c1ccc(-c2cnc(-c3ccc(C(F)(F)F)cc3)o2)cc1 [Example 107, ethyl 4-[2-(4-trifluoromethylphenyl)-5-oxazolyl]benzoate]",–
48 nM,253 to 254 °C,"O=C(O)c1ccc(-c2cnc(-c3ccc(C(F)(F)F)cc3)o2)cc1 [Example 110, 4-[2-(4-trifluoromethylphenyl)-5-oxazolyl]benzoic acid]",Hypoglycemic effect (%) [2]: 73%; Hypolipidemic effect (%) [2]: 87%
60 nM,–,"O=C(O)c1ccc(-c2cnc(-c3ccc(C(F)(F)F)cc3)s2)cc1 [Example 113, 4-[2-(4-trifluoromethylphenyl)-5-thiazolyl]benzoic acid]",Hypoglycemic effect (%) [2]: 45%; Hypolipidemic effect (%) [2]: 53%
–,> 300 °C,"O=C(O)c1ccc(-c2ncc(-c3ccc(Cl)cc3)s2)cc1 [Example 114, 4-[5-(4-chlorophenyl)-2-thiazolyl]benzoic acid]",–
–,245 to 248 °C,"O=C(O)c1ccc(-c2csc(-c3ccccc3)n2)cc1 [Reference Example 9, 4-(2-phenyl-4-thiazolyl]benzoic acid]",–
–,284 to 285 °C,"O=C(O)c1ccc(-c2csc(-c3ccc(Cl)cc3)n2)cc1 [compound 10, 4-[2-(4-chlorophenyl)-4-thiazolyl]benzoic acid]",–
–,268 to 270 °C,"O=C(O)c1ccc(-c2cnc(-c3ccc(Cl)cc3)o2)cc1 [compound 13, 4-[2-(4-chlorophenyl)-5-oxazolyl]benzoic acid]",–
